Measured values reported in paper PMC12543283, “TastepepAI: An artificial intelligence platform for taste peptide de novo design” (PLOS Computational Biology, 2025).
Ends that are not written are not given here.

Columns and labels:
[1] = Electronic tongue analysis (Taste-Sensing System SA 402B); design: unit not given here; details: reference solution 30 mM KCl + 0.3 mM tartaric acid as baseline, first measurement excluded; for Umami: sensor AAE; for Umami / Bitter / Sweet: detection threshold 0, room temperature; for Umami / Bitter / Sour / Salty: four replicates; for Sour: detection threshold -13, room temperature; for Salty: detection threshold -6, room temperature; for Sweet: measured five times
Method in brief: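 Room-temperature electronic-tongue readings with five taste probes, calibrated against a reference of 30 mM KCl and 0.3 mM tartaric acid. Samples at 0.1 mg/mL and 1.0 mg/mL were measured four times, sweetness five times, and the first run was dropped. Detection cut-offs were sour −13, salty −6, others 0.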

[2] = test system: human pancreatic ductal epithelial cells (HPNE)
[3] = test system: human embryonic kidney cells (HEK293T)
Procedure: The cytotoxicity of 73 synthetic peptides was evaluated using four human cell lines: human pancreatic ductal epithelial cells (HPNE), human embryonic kidney cells (HEK293T), human umbilical vein endothelial cells (HUVEC), and human bronchial epithelial cells (BEAS-2B). When cell density reached 70% confluence, the complete culture medium was replaced with serum-free maintenance medium, and peptides were added at a final concentration of 100 μM for 36 h. Control groups received only serum-free maintenance medium without peptides. Cell proliferation was assessed using the CCK-8 assay kit (Solarbio, CA1210) according to the manufacturer’s instructions.

[4] = test system: human umbilical vein endothelial cells (HUVEC)
[5] = test system: human bronchial epithelial cells (BEAS-2B)

Substance	Umami ([1]; peptide 0.1 mg/mL)	Umami ([1]; peptide 1 mg/mL)	Bitter ([1]; sensor C00, peptide 0.1 mg/mL)	Bitter ([1]; sensor C00, peptide 1 mg/mL)	Sour ([1]; sensor CA0, peptide 0.1 mg/mL)	Sour ([1]; sensor CA0, peptide 1 mg/mL)	Salty ([1]; sensor CT0, peptide 0.1 mg/mL)	Salty ([1]; sensor CT0, peptide 1 mg/mL)	Sweet ([1]; sensor GL1, peptide 0.1 mg/mL)	Sweet ([1]; sensor GL1, peptide 1 mg/mL)	Average cell viability, HPNE [2]	Cell viability, HPNE, Data1 [2]	Cell viability, HPNE, Data2 [2]	Cell viability, HPNE, Data3 [2]	Average cell viability, HEK293T [3]	Cell viability, HEK293T, Data1 [3]	Cell viability, HEK293T, Data2 [3]	Cell viability, HEK293T, Data3 [3]	Average cell viability, HUVEC [4]	Cell viability, HUVEC, Data1 [4]	further results
FEGDQDA [TaPep18]	1.84	-5.33	6.92	3.77	-3.88	13.35	-22.88	7.99	5.97	-5.91	102.53	116.21	89.05	102.33	103.66	104.57	105.99	100.41	104.36	97.71	Cell viability, HUVEC, Data2 [4]: 114.64; Cell viability, HUVEC, Data3 [4]: 100.75; Average cell viability, BEAS-2B [5]: 104.49; Cell viability, BEAS-2B, Data1 [5]: 109.67; Cell viability, BEAS-2B, Data2 [5]: 103.49; Cell viability, BEAS-2B, Data3 [5]: 100.30
FEGPE [TaPep62]	1.43	-4.77	7.43	3.70	-2.87	11.86	-20.91	8.50	6.38	-4.13	104.06	108.32	92.35	111.51	100.16	97.95	102.21	100.32	108.97	109.69	Cell viability, HUVEC, Data2 [4]: 105.38; Cell viability, HUVEC, Data3 [4]: 111.84; Average cell viability, BEAS-2B [5]: 106.55; Cell viability, BEAS-2B, Data1 [5]: 112.26; Cell viability, BEAS-2B, Data2 [5]: 103.59; Cell viability, BEAS-2B, Data3 [5]: 103.79
FNGVE [TaPep61]	3.14	-2.71	6.59	3.33	-7.21	6.60	-23.88	3.55	8.89	-2.71	94.34	84.66	82.36	116.01	98.80	99.65	96.91	99.84	99.47	89.49	Cell viability, HUVEC, Data2 [4]: 104.82; Cell viability, HUVEC, Data3 [4]: 104.10; Average cell viability, BEAS-2B [5]: 99.57; Cell viability, BEAS-2B, Data1 [5]: 95.41; Cell viability, BEAS-2B, Data2 [5]: 109.57; Cell viability, BEAS-2B, Data3 [5]: 93.72
FPEQQD [TaPep16]	1.15	-5.22	7.29	3.65	-2.22	12.97	-21.97	7.92	4.77	-5.75	104.83	100.13	113.61	100.73	100.13	105.99	97.00	97.38	101.44	102.74	Cell viability, HUVEC, Data2 [4]: 107.69; Cell viability, HUVEC, Data3 [4]: 93.88; Average cell viability, BEAS-2B [5]: 95.65; Cell viability, BEAS-2B, Data1 [5]: 98.50; Cell viability, BEAS-2B, Data2 [5]: 96.11; Cell viability, BEAS-2B, Data3 [5]: 92.32
FTEELE [TaPep32]	1.89	-4.56	7.51	2.80	-3.82	11.60	-20.95	9.59	8.60	-6.23	103.23	117.80	110.72	81.16	100.73	105.14	99.56	97.48	98.11	111.20	Cell viability, HUVEC, Data2 [4]: 89.81; Cell viability, HUVEC, Data3 [4]: 93.32; Average cell viability, BEAS-2B [5]: 106.88; Cell viability, BEAS-2B, Data1 [5]: 104.99; Cell viability, BEAS-2B, Data2 [5]: 104.59; Cell viability, BEAS-2B, Data3 [5]: 111.07
HGGDDLG [TaPep28]	1.08	-5.39	7.58	4.00	-2.05	13.70	-21.08	11.23	3.25	-6.08	100.10	100.63	102.04	97.63	97.67	96.62	99.75	96.62	104.66	105.77	Cell viability, HUVEC, Data2 [4]: 106.73; Cell viability, HUVEC, Data3 [4]: 101.46; Average cell viability, BEAS-2B [5]: 108.84; Cell viability, BEAS-2B, Data1 [5]: 111.86; Cell viability, BEAS-2B, Data2 [5]: 106.08; Cell viability, BEAS-2B, Data3 [5]: 108.57
HIDELDE [TaPep22]	2.56	-3.68	6.91	3.37	-5.65	9.43	-22.87	7.21	7.18	-4.86	95.67	103.83	84.66	98.54	98.23	106.09	94.35	94.26	101.94	90.69	Cell viability, HUVEC, Data2 [4]: 106.97; Cell viability, HUVEC, Data3 [4]: 108.17; Average cell viability, BEAS-2B [5]: 111.67; Cell viability, BEAS-2B, Data1 [5]: 106.78; Cell viability, BEAS-2B, Data2 [5]: 113.26; Cell viability, BEAS-2B, Data3 [5]: 114.96
IAVPHEP [TaPep47]	2.32	-4.54	8.00	3.37	-4.89	10.97	-19.15	9.73	6.95	-5.60	99.80	107.02	87.25	105.12	100.09	104.67	100.41	95.21	101.12	101.62	Cell viability, HUVEC, Data2 [4]: 112.48; Cell viability, HUVEC, Data3 [4]: 89.25; Average cell viability, BEAS-2B [5]: 106.38; Cell viability, BEAS-2B, Data1 [5]: 109.97; Cell viability, BEAS-2B, Data2 [5]: 99.00; Cell viability, BEAS-2B, Data3 [5]: 110.17
IFGDD [TaPep57]	1.71	-5.02	7.29	3.08	-3.54	12.57	-21.64	9.94	6.75	-7.93	103.13	83.76	112.81	112.81	99.72	100.22	96.06	102.87	100.24	106.57	Cell viability, HUVEC, Data2 [4]: 103.38; Cell viability, HUVEC, Data3 [4]: 90.77; Average cell viability, BEAS-2B [5]: 100.86; Cell viability, BEAS-2B, Data1 [5]: 99.70; Cell viability, BEAS-2B, Data2 [5]: 103.89; Cell viability, BEAS-2B, Data3 [5]: 99.00
